# Reference: patent publication US8673585B2, “Biochemical serum marker” (Biouniversa S.r.l., priority 2009, dated 2014)
# How the values were obtained:
# J774 cells [1] = experiment: Binding of FITC-conjugated recombinant BAG3 to the cell surface (confocal microscopy); type: cell-based, murine; conditions: FITC-conjugated protein added to the culture medium for 1 hour
# Protocol: The BAG3 recombinant protein was then conjugated to FITC using the FluoroTag FITC Conjugation Kit (Sigma). Equal amounts of BSA-FITC (negative control) and rBAG3-FITC were added to the culture medium for 1 hour. Cells were then fixed with a solution of 3.7% formaldehyde and analyzed by a Zeiss LSM confocal microscope.
# Binding of the BAG3 protein to the surface of J774 cells was confirmed by use of the recombinant protein conjugated with a fluorophore. BAG3 binding is specific because it is not observed when other proteins, for example BSA, are used instead of BAG3.
# J774 cells [2] = experiment: Macrophage activation assay: production of nitrites in the culture medium (Griess reagent); type: cell-based, murine
# Protocol: The recombinant BAG3 protein was used for macrophage activation assays, in order to determine the possible role on blood cells of the protein released in the serum. For this purpose, the murine monocyte J774 cell line was treated with different concentrations of the recombinant BAG3 protein, using a pro-inflammatory agent such as lipopolysaccharide (LPS) as a positive control. J774 cells were plated at 60% confluence and incubated for 24 h with the recombinant BAG3 protein at concentrations of 250, 500 ng/ml and 1 mg/ml, alone or in combination with LPS at a concentration of 10 ng/ml.
# Moreover the production of nitrites in the culture medium, which correlates with monocyte activation, was verified with the Griess reagent (1% sulfanilamide, 0.1% naftilethylenediamine, 5% phosphoric acid) and measured in a Beckman DU-62 spectrophotometer at 550 nM (FIG. 9b).
Substance,binding to the surface of J774 cells (J774 cells [1]),"production of nitrites compared to the control (untreated cells) (J774 cells [2]; 24 h, 500 ng/ml, p<0.001, FIG. 9b)","dose dependence of activity (iNOS expression and nitrites) (J774 cells [2]; 24 h, 250, 500 ng/ml and 1 mg/ml, FIGS. 9a and b)"
"recombinant BAG3 protein: Recombinant human BAG3 protein expressed in E. coli, His-tagged, purified by affinity chromatography; FITC-conjugated for the binding test",confirmed,increased three-fold,dose-dependent
"bovine serum albumin [BSA, reference compound]",not observed,–,–
